The record followed here is US10760065B2, “Tuning microbial populations with programmable nucleases” (priority 2013, dated 2020).

The subject of one test is EMG2 Wild-Type. Put plainly: microbe, parasite or virus in culture. The format is cell-based, E. coli. The note with it: strain EMG2 Wild-Type, LB broth; for MIC: Escherichia coli, read-out: Minimum Inhibitory Concentration (MIC). Here is the method:
(§1) MICs were determined by broth microdilution using LB broth according to the CLSI guidelines (Clinical and Laboratory Standards Institute. Methods for Dilution Antimicrobial Susceptibility Tests for Bacteria That Grow Aerobically; Approved Standard—Seventh Edition. 64 (2006)).

The next test has as its system EMG2 pNDM-1. Description: MIC determination by broth microdilution. The format is cell-based, E. coli. Conditions: strain EMG2 pNDM-1, LB broth; for MIC: Escherichia coli, read-out: Minimum Inhibitory Concentration (MIC). As to the method:
as §1

Another test deals with EMG2 pSHV-18. Description: MIC determination by broth microdilution. The format is cell-based, E. coli. The note with it: strain EMG2 pSHV-18, LB broth; for MIC: Escherichia coli, read-out: Minimum Inhibitory Concentration (MIC). Here is the method:
as §1
In general terms: In broth dilution the organism is exposed to a series of concentrations in liquid medium.

The subject of a further test is EMG2 gyrAD87G. Put plainly: MIC determination by broth microdilution. It counts as cell-based, E. coli. The note with it: strain EMG2 gyrAD87G, LB broth; for MIC: Escherichia coli, read-out: Minimum Inhibitory Concentration (MIC). Here is the method:
as §1

The subject of a further test is EHEC. Description: Galleria mellonella infection model, survival. The format is in vivo. The note with it: ΦRGNeae MOI ~30; chloramphenicol or carbenicillin 32 mg/kg; Log-rank p<0.05. As to the method:
Galleria mellonella larvae were injected with either PBS (uninfected) or approximately 4×10^5 colony forming units (CFU) of EHEC. […] Survival curves represent an aggregate of four independent experiments, each with 20 worms per treatment group (n=80). […] G. mellonella larvae (n=40) were injected with PBS or approximately 3×10^5 colony forming units (CFU) of EHEC. Larvae were subsequently treated with PBS, ΦRGNeae at MOI ˜30, chloramphenicol, or carbenicillin. The antibiotics were both applied at a concentration of 32 mg/kg, corresponding to the CLSI resistance breakpoints for Enterobacteriaceae (32 μg/mL).
Larvae of the model organism Galleria mellonella (Desbois, A. P. & Coote, P. J. Adv. Appl. Microbiol. 78, 25-53 (2012)) were purchased from Vanderhorst Wholesale, Inc. (St. Marys, Ohio, USA) and received in the final larval instar for survival assays. Larvae were removed from food source, allowed to acclimate for at least 24 h at room temperature in the dark, and used within 4 days of receipt. […] Larvae were incubated at 37° C. and survival was monitored at 12 hour intervals for 72 hours, with death indicated by lack of movement and unresponsiveness to touch (Desbois, A. P. & Coote, P. J. Adv. Appl. Microbiol. 78, 25-53 (2012)). Kaplan-Meier survival curves were generated on the data pooled from four independent experiments and analyzed with the log-rank test using GraphPad Prism.

For the next test, the system named is EHEC strain. Description: Antibiotic susceptibility of the EHEC strain. The format is cell-based, E. coli.

Values after ≈ are worked out from the molar mass of the structure shown.

Consider `CC(C)(O/N=C(\C(=O)N[C@@H]1C(=O)N2C(C(=O)[O-])=C(C[n+]3ccccc3)CS[C@H]12)c1csc(N)n1)C(=O)O` [CAZ, ceftazidime], for which the MIC with EMG2 Wild-Type was 0.25 µg/mL (≈ 0.457 µM); in the test on EMG2 pNDM-1, more than 64 µg/mL; in the test with EMG2 pSHV-18, 1 µg/mL (≈ 1.83 µM).

In the case of `CC1COc2c(N3CCN(C)CC3)c(F)cc3c(=O)c(C(=O)O)cn1c23` (stereo not shown) [OFX, ofloxacin], the values for the MIC in the test on EMG2 Wild-Type and in the test on EMG2 gyrAD87G were 0.125 µg/mL (≈ 0.346 µM) and 0.5 µg/mL (≈ 1.38 µM), respectively.

`C[C@@H](O)[C@H]1C(=O)N2C(C(=O)O)=C(SCCN=CN)C[C@H]12` [IPM, imipenem]: the values for the MIC in the test on EMG2 Wild-Type and in the test with EMG2 pNDM-1 were 0.25 µg/mL (≈ 0.835 µM) and 32 µg/mL (≈ 107 µM), respectively.

Take `CC1(C)S[C@@H]2[C@H](NC(=O)C(C(=O)O)c3ccccc3)C(=O)N2[C@H]1C(=O)O` (stereo partly shown) [carbenicillin]: the “survival of EHEC-infected larvae, comparison with antibiotics” value with EHEC is “superior to ΦRGNeae treatment”. Also, in the test with EHEC strain, the “susceptibility of EHEC strain” value is reported as “susceptible”.

As to `CO/N=C(\C(=O)N[C@@H]1C(=O)N2C(C(=O)O)=C(COC(C)=O)CS[C@H]12)c1csc(N)n1` [CTX, cefotaxime], the MIC is not above 0.0625 µg/mL in the test with EMG2 Wild-Type, not above 0.0625 µg/mL in the test with EMG2 gyrAD87G, more than 64 µg/mL in the test on EMG2 pNDM-1 and 0.25 µg/mL (≈ 0.549 µM) in the test on EMG2 pSHV-18.

For the molecule gentamicin, the “Minimum Inhibitory Concentration (MIC)” value in the test with EMG2 Wild-Type was 4 µg/mL; with EMG2 gyrAD87G, 4 µg/mL; in the test on EMG2 pNDM-1, more than 64 µg/mL; in the test on EMG2 pSHV-18, more than 64 µg/mL.

Consider `CC1(C)S[C@@H]2[C@H](NC(=O)[C@H](N)c3ccccc3)C(=O)N2[C@H]1C(=O)O` [AMP, ampicillin], for which the MIC with EMG2 Wild-Type is 2 µg/mL (≈ 5.72 µM); with EMG2 gyrAD87G, 4 µg/mL (≈ 11.4 µM); in the test on EMG2 pNDM-1, more than 64 µg/mL; in the test with EMG2 pSHV-18 it was 64 µg/mL (≈ 183 µM).

In the case of `O=C(N[C@H](CO)[C@H](O)c1ccc([N+](=O)[O-])cc1)C(Cl)Cl` [chloramphenicol], the “susceptibility of EHEC strain” value in the test on EHEC strain is listed as “resistant”.
